Source: ChEMBL document CHEMBL1133806, “Synthesis and biological evaluation of novel bisindolylmaleimides that inhibit vascular endothelial cell proliferation” (Bioorg Med Chem Lett, 2001)
pIC50: −log10 of the molar value.

Columns and labels:
Assay type in all cases: functional, cell-based
HUVEC = experiment: Antiproliferative activity against human umbilical vein endothelial cells (HUVECs) using MTT assay
DLD-1 = experiment: Antiproliferative activity against human colon cancer cell line (DLD-1 cells) using MTT assay
[1] = Antiproliferative activity against burkit lymphoma cell line (ST-486 cells) using MTT assay; details: Homo sapiens
LoVo = experiment: Antiproliferative activity against human colon cancer cell line (LoVo cells) using MTT assay

Row | Compound | pIC50 (HUVEC) | pIC50 (DLD-1) | pIC50 [1] | pIC50 (LoVo)
1 | CN(C)CCOCCn1cc(C2=C(c3c[nH]c4ccccc34)C(=O)NC2=O)c2ccccc21 | 4.70 | < 4.00 | 5.00 | < 4.00
2 | CN(C)CCN1C(=O)C(c2c[nH]c3ccccc23)=C(c2cn(CCOCCO)c3ccccc23)C1=O | 5.15 | 4.40 | 5.00 | 5.15
3 | CN(C)CCN1C(=O)C(c2c[nH]c3ccccc23)=C(c2c[nH]c3ccccc23)C1=O | 4.52 | < 4.00 | < 4.00 | < 4.00
4 | CN[C@@H]1C[C@H]2O[C@@](C)([C@@H]1OC)n1c3ccccc3c3c4c(c5c6ccccc6n2c5c31)C(=O)NC4 [STAUROSPORINE] | 8.40 | 8.05 | 8.15 | 
5 | O=C1NC(=O)C(c2cn(CCOCCO)c3ccccc23)=C1c1c[nH]c2ccccc12 | 5.70 | 5.22 | 5.70 | 4.70
6 | Cc1ccc(C(=O)Nc2ccc(S(=O)(=O)O)c3cc(S(=O)(=O)O)cc(S(=O)(=O)O)c23)cc1NC(=O)c1cccc(NC(=O)Nc2cccc(C(=O)Nc3cc(C(=O)Nc4ccc(S(=O)(=O)O)c5cc(S(=O)(=O)O)cc(S(=O)(=O)O)c45)ccc3C)c2)c1 [SURAMIN] | 3.30 |  |  | 
7 | CN(C)CCOCCn1cc(C2=C(c3c[nH]c4ccccc34)C(=O)N(CCN(C)C)C2=O)c2ccccc21 | 4.60 | < 4.00 | 4.52 | < 4.00
8 | CNCCOCCn1cc(C2=C(c3c[nH]c4ccccc34)C(=O)N(CCN(C)C)C2=O)c2ccccc21 | 4.30 | < 4.00 | 4.70 | < 4.00
